Common to all, as to set-up: The entire coding region of the cDNAs of 5-HT4(a), 5-HT4(b), 5-HT4(c) and 5-T4(d) was subcloned; expressed in transfected cells; host or cells: COS-7 cells, transient, pRC/CMV vector; cDNA amplified from human brain and ileum RNA
Assay [1] deals with T1, receptor 5-HT4(c) (Homo sapiens, UniProt Q13639). In words: cAMP formation in transiently transfected COS-7 cells. In kind it is cell-based. The following applies: for decrease of the basal cAMP values: 1 μM. Here is the method:
(§1) The entire coding region of the cDNAs of 5-HT4(a), 5-HT4(b), 5-HT4(c) and 5-T4(d) was subcloned into a mammalian expression vector pRC/CMV (Invitrogen, Carlsbad, Calif.). The transfections were carried out using polyethyleneimine (PEI) as described in Boussif et al. (1995). The cells were transfected using a mixture of DNA and of PEI in a ratio of 20 μmol of PEI/mg of DNA in 0.9% NaCl. For the radioligand binding assays, the COS-7 cells were seeded into culture flasks of 1.5×10^4 mm^2 one day before the transfection, at a density of 1×10^7 cells/flask, incubated for six hours with plasmid DNA (150 μg/flask) and collected 48 hours after transfection. For the measurement of cAMP formation, the COS-7 cells were seeded onto twelve-well plates one day before transfection, at a density of 5×10^5 cells/well, incubated for six hours with plasmid DNA (4 to 8 μg/well according to the experiments) and assayed 24 hours after the transfection. The cells transfected with the receptor 5-HT4 cDNA constructs were compared with the “blank”-transfected cells, which were exposed to the unmodified pRC/CMV plasmid.
To measure intracellular cAMP accumulation, the transiently transfected COS-7 cells were incubated, 24 hours after transfection, in Dulbecco's modified Eagle medium (DMEM) containing 5 mM theophylline, 10 mM HEPES and 10 μM pargyline for 15 minutes at 37° C., in the presence of 5% CO2. […] The reaction was stopped by aspiration of the medium and addition of 500 μl of ice-cold ethanol. After one hour at room temperature, the cells were scraped, and everything was collected and freeze-dried. The pellet was resuspended in 350 μl of PBS and centrifuged for 5 min at 300 g. The cAMP was quantified in the supernatant using a radioimmunological assay (E.R.I.A. assay kit from Pasteur Diagnostics 79830). Student's t tests were carried out using the program Quick TEst.
ML10375 is capable of reducing the cAMP levels in the cells expressing the 5-HT4(c) and 5-HT4(d) isoforms in the absence of any stimulation of the receptor by 5-HT4 agonists. To test the hypothesis that ML10375 may constitute a reverse agonist for the human receptor 5-HT4, the 5-HT4(c) isoform was overexpressed in COS-7 cells in order to increase the frequency of the spontaneously active state of the receptor. The COS-7 cells were transfected with 4 to 8 μg of plasmid DNA per well in order to obtain an increase in the expression levels of the receptor 5-HT4(c). […] (FIG. 6B).

Assay [2] has as its target receptor 5-HT4(d) (Homo sapiens, UniProt Q13639). Briefly: [3H]GR113808 radioligand binding, membranes of transiently transfected COS-7 cells. As to conditions: read-out: Ki, competition for [3H]GR113808 binding. Here is the method: as §1
(§2) Each flask of cells intended for the radioligand binding assays was washed twice with a phosphate buffer (PBS). The cells were then scraped, collected and centrifuged at 300 g for five minutes. The pellet was resuspended in 2.5 ml of ice-cold HEPES buffer (50 mM, pH 7.4) and homogenized with an Ultraturax tissue grinder. The lysate was then centrifuged at 40,000 g for 20 minutes at 4° C. The resulting pellet was resuspended in 15 volumes of HEPES buffer (50 mM, pH 7.4). The membrane preparations were maintained in ice and used within two hours for radioligand binding assays. The protein concentrations were determined by the method of Lowry et al., 1951, using bovine serum albumin as standard.
(§3) The saturation studies were performed using [^3H] GR113808 at 9 different concentrations ranging from 0.01 to 3.5 nM. The tubes were incubated at 25° C. for 30 minutes. The reaction-was stopped by rapid filtration, under vacuum, through Whatman GF/B filter paper using the Brandel 48R cell harvester. The filters were presoaked in a solution of PEI (0.1%) to reduce the binding to the filters. The filters were then washed with an ice-cold buffer (50 mM Tris-HCl, pH 7.4) and placed in 4 ml of “ready safe” scintillation cocktail (Beckman, Fullerton, Calif.) overnight. The radioactivity was measured using a Beckman LS 6500 C liquid scintillation counter. The binding data were analysed by computer-assisted nonlinear regression analysis (Graph Pad Prism Program, Graph Pad Software, Inc., San Diego, Calif.).
(§4) The experiments correspond to the competition of various compounds for [^3H]GR113808 binding to membranes of transiently transfected COS-7 cells. […] The estimations of affinity are given as Ki values in nM, and are determined from IC50 values obtained by computer-assisted nonlinear curve analysis (GraphPad, Prism Software). The Ki values are representative of at least two determinations.

Assay [3] concerns the target T1, receptor 5-HT4(c). The assay is described as above. The following applies: read-out: Ki, competition for [3H]GR113808 binding. On the procedure: as §1, §2, §3, §4

T1 sequence (Q13639 1-380 isoform Q13639-4): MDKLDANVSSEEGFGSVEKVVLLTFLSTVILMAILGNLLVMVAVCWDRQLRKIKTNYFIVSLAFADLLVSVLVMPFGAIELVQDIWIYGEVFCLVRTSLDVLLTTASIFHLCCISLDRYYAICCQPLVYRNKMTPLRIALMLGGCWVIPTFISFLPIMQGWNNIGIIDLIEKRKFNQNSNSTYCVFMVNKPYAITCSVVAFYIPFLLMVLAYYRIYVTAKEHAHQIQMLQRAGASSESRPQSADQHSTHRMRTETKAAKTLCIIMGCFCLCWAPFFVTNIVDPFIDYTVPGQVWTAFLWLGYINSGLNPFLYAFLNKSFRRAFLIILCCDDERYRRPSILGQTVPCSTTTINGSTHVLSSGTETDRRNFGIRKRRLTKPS
receptor 5-HT4(d), sequence (Q13639 1-360 isoform Q13639-3): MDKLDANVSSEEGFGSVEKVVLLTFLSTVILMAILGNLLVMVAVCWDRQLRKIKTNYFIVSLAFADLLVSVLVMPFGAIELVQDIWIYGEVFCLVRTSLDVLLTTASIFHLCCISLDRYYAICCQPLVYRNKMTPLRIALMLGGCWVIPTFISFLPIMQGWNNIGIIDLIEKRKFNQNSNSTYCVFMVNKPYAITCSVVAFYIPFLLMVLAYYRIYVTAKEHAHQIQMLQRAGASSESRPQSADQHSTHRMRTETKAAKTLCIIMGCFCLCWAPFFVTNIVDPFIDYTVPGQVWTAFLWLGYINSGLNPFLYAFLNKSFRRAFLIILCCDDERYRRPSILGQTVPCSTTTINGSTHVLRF

Turning to `COc1cc(N)c(Cl)cc1C(=O)OCCN1C[C@H](C)C[C@H](C)C1` [ML10375, 2-(cis-3,5-dimethyl-piperidino)ethyl 4-amino-5-chloro-2-methoxybenzoate], the “antagonism of the stimulatory effect of 5-HT (1 μM) on the basal cAMP” value in assay [1] (4 μg of plasmid DNA, preincubation with 1 μM) is “antagonized”. In addition, the “effect of PTX treatment on the ML10375-induced reduction in basal cAMP” value in assay [1] (6 μg of plasmid DNA, ML10375 1 μM, PTX 100 ng/ml, 16-hour preincubation) is reported as “did not significantly modify”. Further, in assay [1] (8 μg of plasmid DNA, preincubation with 1 μM), the “decrease in the basal cAMP level in the presence of 1 μM 5-HT” value is reported as 47%. Besides, the “reduction of the basal cAMP levels” value in assay [1] (COS-7, 1 μM, no agonist) is 21%. Also, the “decrease of the basal cAMP values” in assay [1] (COS-7 transfected with 4 μg of plasmid DNA) is reported as 24%; in assay [1] (COS-7 transfected with 8 μg of plasmid DNA) it was 62%. Moreover, the Ki (commonly the dissociation constant of the complex between target and ligand, obtained from inhibition or displacement) in assay [2] was determined as 0.41 ± 0.1 nM; in assay [3], 0.61 ± 0.08 nM.

The record behind these values is US6506580B1, “Splice variants for human 5-HT4 serotonin receptor and their applications, in particular for screening” (Institut National de la Sante et de la Recherche Medicale …, priority 1997, dated 2003).
